pIC50: −log10 of the molar value.
Target: T1, Interstitial collagenase (Homo sapiens, UniProt P03956)
T1 sequence (P03956 whole entry): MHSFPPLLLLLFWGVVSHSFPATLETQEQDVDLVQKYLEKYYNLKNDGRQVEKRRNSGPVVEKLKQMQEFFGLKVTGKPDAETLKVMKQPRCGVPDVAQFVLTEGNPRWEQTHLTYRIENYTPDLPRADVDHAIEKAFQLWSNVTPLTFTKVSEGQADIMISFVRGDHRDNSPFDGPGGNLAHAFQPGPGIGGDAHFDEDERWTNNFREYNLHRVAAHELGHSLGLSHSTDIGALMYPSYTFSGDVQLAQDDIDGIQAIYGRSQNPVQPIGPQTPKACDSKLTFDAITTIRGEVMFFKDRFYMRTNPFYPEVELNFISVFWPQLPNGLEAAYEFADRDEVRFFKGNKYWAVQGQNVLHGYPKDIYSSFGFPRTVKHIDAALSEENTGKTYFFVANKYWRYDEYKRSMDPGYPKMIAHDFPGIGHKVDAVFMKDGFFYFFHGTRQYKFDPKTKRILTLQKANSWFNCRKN
Assay: Inhibitory activity was tested against human collagenase (MMP-1)

| SMILES | pIC50 |
| --- | --- |
| CNC(=O)[C@H](Cc1ccccc1)NC(=O)[C@@H](Cc1ccccc1S)CC(C)C | 5.96 |
| CNC(=O)[C@H](Cc1ccc(OC)cc1)NC(=O)C(Cc1ccc[nH]c1=S)CC(C)C (stereo not given in full) | < 4.00 |
| CNC(=O)[C@H](Cc1ccc(OC)cc1)NC(=O)[C@H](CC(C)C)[C@@H](S)c1ccccc1 | 6.57 |
| CNC(=O)[C@H](Cc1ccc(OC)cc1)NC(=O)C(Cc1cccc(Cl)c1S)CC(C)C (stereo not given in full) | 6.48 |
| CNC(=O)[C@H](Cc1ccc(OC)cc1)NC(=O)C(Cc1cccc(C(F)(F)F)c1S)CC(C)C (stereo not given in full) | 6.54 |
| CNC(=O)[C@H](Cc1ccc(OC)cc1)NC(=O)[C@@H](Cc1ccccc1S)CC(C)C | 6.47 |
| CNC(=O)[C@H](Cc1ccc(OC)cc1)NC(=O)C(Cc1c(S)cccc1Cl)CC(C)C (stereo not given in full) | 6.49 |
| CNC(=O)[C@H](Cc1ccc(OC)cc1)NC(=O)C(Cc1ccc(Cl)cc1S)CC(C)C (stereo not given in full) | 6.64 |
| CNC(=O)[C@H](Cc1ccc(OC)cc1)NC(=O)C(Cc1ccc(OC)cc1S)CC(C)C (stereo not given in full) | 6.85 |
| CNC(=O)[C@H](Cc1ccc(OC)cc1)NC(=O)[C@@H](Cc1cccc(OC)c1S)CC(C)C | 6.66 |
| CNC(=O)[C@H](Cc1ccc(OC)cc1)NC(=O)[C@H](Cc1cccc(OC)c1S)CC(C)C | 6.80 |
| CNC(=O)[C@H](Cc1ccccc1)NC(=O)[C@H](Cc1ccccc1S)CC(C)C | 7.52 |
| CNC(=O)[C@H](Cc1ccc(OC)cc1)NC(=O)[C@H](Cc1ccccc1S)CC(C)C | 7.26 |
| CNC(=O)[C@H](Cc1ccc(OC)cc1)NC(=O)[C@H](CC(C)C)[C@H](C)S | 7.77 |
| CC(C)CC(Cc1ccccc1S)C(=O)NC1CCCCCCCCCCNC1=O (stereo not given) | < 4.00 |
